Measured values from patent US20230172204A1 (BASF SE, priority 2020, published 2023).

Columns and labels:
[1] = tested on: Phakopsora pachyrhizi (F129L); experiment: Protective control of soybean rust on soybeans (PHAKPA P6); type: in vivo; conditions: for PHAKPA (F129L) Disease level (%) P6 at 4 ppm / PHAKPA (F129L) Disease level (%) P6 at 16 ppm: P6 protective, % diseased leaf area; for % PHAKPA (F129L) Disease level P6 at 4 ppm: protective P6, 4 ppm; for % PHAKPA (F129L) Disease level P6 at 4 ppm / % PHAKPA (F129L) Disease level P6 at 16 ppm: soybean rust F129L; for % PHAKPA (F129L) Disease level P6 at 16 ppm: protective P6, 16 ppm
[2] = tested on: Phakopsora pachyrhizi (F129L); experiment: Protective control of soybean rust on soybeans (PHAKPA P2); type: in vivo; conditions: for PHAKPA (F129L) Disease level (%) P2 at 4 ppm / PHAKPA (F129L) Disease level (%) P2 at 16 ppm: P2 protective, % diseased leaf area; for % PHAKPA (F129L) Disease level P2 at 4 ppm: protective P2, 4 ppm; for % PHAKPA (F129L) Disease level P2 at 4 ppm / % PHAKPA (F129L) Disease level P2 at 16 ppm: soybean rust F129L; for % PHAKPA (F129L) Disease level P2 at 16 ppm: protective P2, 16 ppm

| SMILES | PHAKPA (F129L) Disease level (%) P6 at 4 ppm [1] [%] | PHAKPA (F129L) Disease level (%) P6 at 16 ppm [1] [%] | PHAKPA (F129L) Disease level (%) P2 at 4 ppm [2] [%] | PHAKPA (F129L) Disease level (%) P2 at 16 ppm [2] [%] | % PHAKPA (F129L) Disease level P6 at 4 ppm [1] [%] | % PHAKPA (F129L) Disease level P6 at 16 ppm [1] [%] | % PHAKPA (F129L) Disease level P2 at 4 ppm [2] [%] | % PHAKPA (F129L) Disease level P2 at 16 ppm [2] [%] |
| --- | --- | --- | --- | --- | --- | --- | --- | --- |
| CO/N=C(/C(=O)OC)c1ccccc1CO/N=C(\C)c1cccc(C(F)(F)F)c1 [Trifloxystrobin, trifloxystrobin, reference compound] | 79 | 33 | 71 | 17 | – | – | – | – |
| CC/C(=N\OCc1ccccc1/C(=N\OC)C(=O)NC)c1cccc(C(F)(F)F)c1 [reference compound] | 70 | – | 60 | – | – | – | – | – |
| C=Cc1cc(/C(C)=N/OCc2c(C)cccc2/C(=N\OC)C(=O)NC)cc(C(F)(F)F)c1 [compound 152] | – | – | – | – | 38 | 7 | 24 | 1 |
| CO/N=C(/C(=O)OC)c1cccc(C)c1CO/N=C(\C)c1ccc(C)c(Cl)c1 [compound 163] | – | – | – | – | 47 | 9 | 20 | 1 |
| CNC(=O)/C(=N/OC)c1cccc(C)c1CO/N=C(\C)c1cccc(F)c1C(F)(F)F [compound 326] | – | – | – | – | 30 | 1 | 25 | 0 |
| CNC(=O)/C(=N/OC)c1ccccc1CO/N=C(\C)c1ccc(Cl)c(C(F)(F)F)c1 [reference compound] | – | 4 | – | 11 | – | – | – | – |
| CO/N=C(/C(=O)OC)c1cccc(C)c1CO/N=C(\C)c1ccccc1C [compound 115] | – | – | – | – | 92 | 75 | 83 | 63 |
| CO/N=C(/C(=O)OC)c1cccc(C)c1CO/N=C(\C)c1ccccc1Cl [compound 116] | – | – | – | – | 85 | 67 | 85 | 57 |
| CO/N=C(/C(=O)OC)c1ccccc1CO/N=C(\C)c1cccc(Br)c1 [reference compound] | – | 87 | – | 80 | – | – | – | – |
| CNC(=O)/C(=N/OC)c1cccc(C)c1CO/N=C(\C)c1ccc(C)c(Cl)c1 [compound 109] | – | – | – | – | 12 | 0 | 8 | 1 |
| CO/N=C(/C(=O)OC)c1cccc(C)c1CO/N=C(\C)c1cccc(C(F)F)c1 [compound 19] | – | – | – | – | 87 | 1 | 87 | 0 |
| C#Cc1cc(F)cc(/C(C)=N/OCc2c(C)cccc2/C(=N\OC)C(=O)NC)c1 [compound 55] | – | – | – | – | 13 | 5 | 3 | 1 |
| CNC(=O)/C(=N/OC)c1cccc(C)c1CO/N=C(\C)c1ccccc1C(C)C [compound 220] | – | – | – | – | 100 | 77 | 90 | 30 |
| CO/N=C(/C(=O)OC)c1cccc(C)c1CO/N=C(\C)c1ccc(C)c(C)c1 [compound 137] | – | – | – | – | 50 | 5 | 19 | 2 |
| CO/C=C(/C(=O)OC)c1cccc(C)c1CO/N=C(\C)c1ccc(Br)cc1C(F)(F)F [compound 445] | – | – | – | – | 30 | 2 | 15 | 1 |
| CNC(=O)/C(=N/OC)c1cccc(C)c1CO/N=C(\C)c1cc(Cl)cc(C(F)(F)F)c1 [compound 228] | – | – | – | – | 22 | 2 | 5 | 0 |
| CO/N=C(/C(=O)OC)c1cccc(C)c1CO/N=C(/c1ccc(F)cc1)C(F)F [Ex. 21] | – | – | – | – | 97 | 88 | 100 | 77 |
| CCc1ccc(/C(C)=N/OCc2ccccc2/C(=N\OC)C(=O)NC)cc1 [reference compound] | 83 | – | 35 | – | – | – | – | – |
| CNC(=O)/C(=N/OC)c1cccc(C)c1CO/N=C(\C)c1cc(C)cc(Cl)c1 [compound 106] | – | – | – | – | 32 | 9 | 5 | 1 |

| SMILES | PHAKPA (F129L) Disease level (%) P6 at 4 ppm [1] [%] | PHAKPA (F129L) Disease level (%) P6 at 16 ppm [1] [%] | PHAKPA (F129L) Disease level (%) P2 at 4 ppm [2] [%] | PHAKPA (F129L) Disease level (%) P2 at 16 ppm [2] [%] | % PHAKPA (F129L) Disease level P6 at 4 ppm [1] [%] | % PHAKPA (F129L) Disease level P6 at 16 ppm [1] [%] | % PHAKPA (F129L) Disease level P2 at 4 ppm [2] [%] | % PHAKPA (F129L) Disease level P2 at 16 ppm [2] [%] |
| --- | --- | --- | --- | --- | --- | --- | --- | --- |
| CNC(=O)/C(=N/OC)c1cccc(C)c1CO/N=C(\C)c1ccc(C)c(C(F)(F)F)c1 [compound 230] | – | – | – | – | 73 | 4 | 22 | 1 |
| C=Cc1cccc(/C(=N\OC)C(=O)OC)c1CO/N=C(\C)c1cccc(C(F)(F)F)c1 [Ex. 13] | – | – | – | – | 25 | 0 | 28 | 0 |
| CNC(=O)/C(=N/OC)c1cccc(C)c1CO/N=C(\C)c1ccc(OC(F)(F)F)cc1C(F)(F)F [compound 363] | – | – | – | – | 25 | 2 | 29 | 1 |
| CNC(=O)/C(=N/OC)c1cccc(C)c1CO/N=C(\C)c1cccc(CC2COC2)c1 [compound 161] | – | – | – | – | 100 | 90 | 100 | 100 |
| CNC(=O)/C(=N/OC)c1cccc(C)c1CO/N=C(\C)c1ccc(C)cc1OC(F)(F)F [compound 340] | – | – | – | – | 42 | 7 | 23 | 4 |
| CNC(=O)/C(=N/OC)c1cccc(C)c1CO/N=C(\CC1CC1)c1cccc(C(F)(F)F)c1 [compound 234] | – | – | – | – | 53 | 15 | 53 | 18 |
| CNC(=O)/C(=N/OC)c1cccc(C)c1CO/N=C(/c1ccc(F)cc1)C(F)F [Ex. 27] | – | 0 | – | 0 | 32 | 0 | 5 | 0 |
| CO/N=C(/C(=O)OC)c1cccc(C)c1CO/N=C(\CC1CC1)c1cccc(C(F)(F)F)c1 [compound 215] | – | – | – | – | 87 | 33 | 87 | 37 |
| CO/N=C(/C(=O)OC)c1cccc(C)c1CO/N=C(\C)c1cc(C(F)(F)F)ccc1F [compound 198] | – | – | – | – | 0 | 0 | 4 | 1 |
| CNC(=O)/C(=N/OC)c1cccc(C)c1CO/N=C(\C)c1c(F)ccc(C(F)(F)F)c1F [compound 162] | – | – | – | – | 1 | 0 | 0 | 0 |
| CO/N=C(/C(=O)OC)c1cccc(C)c1CO/N=C(\C)c1cccc(OC(F)F)c1 [compound 80] | – | – | – | – | 30 | 3 | 50 | 10 |
| CNC(=O)/C(=N/OC)c1cccc(C)c1CO/N=C(\C)c1ccccc1Cl [compound 128] | – | – | – | – | 77 | 2 | 32 | 2 |
| CO/N=C(/C(=O)OC)c1cccc(C)c1CO/N=C(\C)c1c(Cl)cccc1Cl [compound 171] | – | – | – | – | 80 | 50 | 100 | 100 |
| CO/N=C(/C(=O)OC)c1ccccc1CO/N=C(\C)c1ccc(C#N)cc1 [reference compound] | – | 53 | – | 87 | – | – | – | – |
| CO/N=C(/C(=O)OC)c1cccc(C)c1CO/N=C(\C)c1cc(Br)cc(Br)c1 [compound 135] | – | – | – | – | 16 | 2 | 15 | 1 |
| CNC(=O)/C(=N/OC)c1cccc(C)c1CO/N=C(\C)c1ccccc1F [Ex. 2, (2E)-2-[2-[[(E)-1-(2-fluorophenyl)ethylideneamino]oxymethyl]-3-methyl-phenyl]-2-methoxyimino-N-methyl-acetamide] | – | – | – | – | 26 | 1 | 5 | 0 |
| CNC(=O)/C(=N/OC)c1cccc(C)c1CO/N=C(\C)c1cc(C)ccc1C [compound 278] | – | – | – | – | 90 | 93 | 90 | 60 |
| CO/N=C(/C(=O)OC)c1ccccc1CO/N=C(\C)c1cccc(F)c1 [reference compound] | – | 80 | – | 90 | – | – | – | – |
